Here are results for seven compounds from ChEMBL document CHEMBL1201861, “Genomics of Drug Sensitity in Cancer screening data, Wellcome Trust Sanger Institute”.

Holding throughout (assay): cells
What all share (type): functional, cell-based, Homo sapiens

One assay concerns GDM-1. The settings on record: Homo sapiens, GDM-1.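 Note: cell viability readout used to measure growth inhibition of human GDM-1 cells.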
The next assay has as its system KMS-12-PE. The following applies: Homo sapiens, KMS-12-PE.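 Note: growth inhibition of human KMS-12-PE cells, measured with a cell viability assay.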
A further assay deals with SNU-C1. The following applies: Homo sapiens, SNU-C1.
Another assay concerns DMS-153. The following applies: Homo sapiens, DMS-153.
The test system of the next assay is EB-3. The following applies: Homo sapiens, EB-3.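 Note: human EB-3 cells, growth inhibition read out via a cell viability assay.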
The next assay concerns JIYOYE. The following applies: Homo sapiens, JIYOYE.
The test system of another assay is LP-1. The following applies: Homo sapiens, LP-1.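 Note: growth inhibition of human LP-1 cells, with the read-out taken from a cell viability assay.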
For another assay, the system named is ECC4. The settings on record: Homo sapiens, ECC4.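 Note: growth inhibition of ECC4 cells, read out with a cell viability assay.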
A further assay has as its system P31-FUJ. The following applies: Homo sapiens, P31-FUJ.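 Note: growth inhibition of P31-FUJ cells, read out with a viability assay.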
The subject of another assay is D-336MG. The following applies: Homo sapiens, D-336MG.
The test system of the next assay is KARPAS-422. The settings on record: Homo sapiens, KARPAS-422.
The test system of a further assay is ARH-77. The following applies: Homo sapiens, ARH-77.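 Note: growth inhibition of ARH-77 cells, read out by a cell viability assay.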
Another assay deals with BOKU. The settings on record: Homo sapiens, BOKU.

Description for ARH-77: SANGER: Inhibition of human ARH-77 cell growth in a cell viability assay.
Description for BOKU: SANGER: Inhibition of human BOKU cell growth in a cell viability assay.
Description for D-336MG: SANGER: Inhibition of human D-336MG cell growth in a cell viability assay.
Description for DMS-153: SANGER: Inhibition of human DMS-153 cell growth in a cell viability assay.
Description for EB-3: SANGER: Inhibition of human EB-3 cell growth in a cell viability assay.
Description for ECC4: SANGER: Inhibition of human ECC4 cell growth in a cell viability assay.
Description for GDM-1: SANGER: Inhibition of human GDM-1 cell growth in a cell viability assay.
Description for JIYOYE: SANGER: Inhibition of human JiyoyeP-2003 cell growth in a cell viability assay.
Description for KARPAS-422: SANGER: Inhibition of human KARPAS-422 cell growth in a cell viability assay.
Description for KMS-12-PE: SANGER: Inhibition of human KMS-12-PE cell growth in a cell viability assay.
Description for LP-1: SANGER: Inhibition of human LP-1 cell growth in a cell viability assay.
Description for P31-FUJ: SANGER: Inhibition of human P31-FUJ cell growth in a cell viability assay.
Description for SNU-C1: SANGER: Inhibition of human SNU-C1 cell growth in a cell viability assay.

Broadly, the IC50 is the concentration that gives 50% inhibition. A lower IC50 goes with greater potency in that assay. On to `CC[C@H](CO)Nc1nc(NCc2ccccc2)c2ncn(C(C)C)c2n1` [SELICICLIB], for which the IC50 with GDM-1 is greater than 16 µM; in the assay with KMS-12-PE, greater than 16 µM; in the assay on SNU-C1, greater than 16 µM; in the assay on DMS-153, greater than 16 µM; with EB-3, greater than 16 µM; in the assay on JIYOYE, 8.5 µM. For the same compound, the concentration for half-maximal inhibition (IC50) in the assay on LP-1 was greater than 16 µM; with ECC4, greater than 16 µM; in the assay on P31-FUJ, greater than 16 µM; in the assay with D-336MG, greater than 16 µM; with KARPAS-422, 9.96 µM; with ARH-77 it was greater than 16 µM.

Turning to `COc1cc2ncn(-c3cc(OCc4ccccc4C(F)(F)F)c(C(N)=O)s3)c2cc1OC` [GW843682X], the IC50 was 0.0508 µM in the assay on GDM-1; greater than 0.256 µM in the assay on KMS-12-PE; 0.135 µM in the assay with BOKU; greater than 0.256 µM with SNU-C1; greater than 0.256 µM in the assay with DMS-153; greater than 0.256 µM with EB-3. The concentration for half-maximal inhibition (IC50) in the assay on JIYOYE is 0.148 µM; with LP-1, 0.0625 µM; in the assay with ECC4, greater than 0.256 µM; with P31-FUJ, greater than 0.256 µM; in the assay with D-336MG, greater than 0.256 µM; in the assay on KARPAS-422, 0.21 µM. In addition, the midpoint of inhibition in the assay on ARH-77, the IC50, lay at 0.0581 µM.

As for `C#Cc1cccc(Nc2ncnc3cc(OCCOC)c(OCCOC)cc23)c1` [ERLOTINIB], the IC50 in the assay with GDM-1, in the assay with KMS-12-PE, in the assay with SNU-C1, in the assay with DMS-153, in the assay on EB-3 and in the assay with JIYOYE was greater than 2 µM throughout. For the same compound, the IC50 in the assay with LP-1, in the assay with ECC4, with P31-FUJ, in the assay with D-336MG, with KARPAS-422 and with ARH-77 was greater than 2 µM each time.

In the case of `COc1cc2ncn(-c3cc(OCc4ccccc4S(C)(=O)=O)c(C#N)s3)c2cc1OC` [GSK-319347A], the IC50 with GDM-1, in the assay on KMS-12-PE, in the assay with SNU-C1, in the assay on DMS-153, with EB-3 and with JIYOYE was greater than 5 µM each time. The IC50 in the assay with LP-1, in the assay on ECC4, in the assay on P31-FUJ, in the assay with D-336MG, with KARPAS-422 and with ARH-77 was greater than 5 µM in each case.

On to `N[C@@H](CSC(c1ccccc1)(c1ccccc1)c1ccccc1)C(=O)O` [S-TRITYL-L-CYSTEINE], for which the half-inhibitory concentration (IC50) in the assay on GDM-1 was 2.49 µM; with KMS-12-PE it was greater than 5.12 µM; in the assay on BOKU it was greater than 5.12 µM; in the assay on SNU-C1, greater than 5.12 µM; in the assay with DMS-153, greater than 5.12 µM; with EB-3, greater than 5.12 µM. Also, the IC50 in the assay with JIYOYE was 1.7 µM; with LP-1, 3.11 µM; in the assay on ECC4, greater than 5.12 µM; with P31-FUJ, greater than 5.12 µM; in the assay with D-336MG, greater than 5.12 µM; with KARPAS-422, 1.2 µM. Further, the half-maximal inhibitory concentration (IC50) with ARH-77 was determined as 3.54 µM.

With `Cc1ccc(-c2c(C(=O)CCl)n(CCCO)c3ncnc(N)c23)cc1`, the IC50 in the assay on GDM-1, in the assay on KMS-12-PE, in the assay with BOKU, in the assay on SNU-C1, in the assay on DMS-153 and in the assay on EB-3 was greater than 4 µM throughout. Besides, the IC50 in the assay on JIYOYE, in the assay with LP-1, in the assay on ECC4, in the assay with P31-FUJ, in the assay with D-336MG and in the assay with KARPAS-422 was greater than 4 µM each time. Further, the IC50 in the assay with ARH-77 is greater than 4 µM.

As for `COc1cc(N2CCN(C)CC2)ccc1Nc1ncc2c(n1)N(C)c1ccccc1C(=O)N2C`, the concentration for half-maximal inhibition (IC50) in the assay on GDM-1 was greater than 8 µM; with KMS-12-PE, greater than 8 µM; with SNU-C1, greater than 8 µM; with DMS-153, greater than 8 µM; in the assay with EB-3, greater than 8 µM; in the assay with JIYOYE, 6.89 µM. Besides, the IC50 with LP-1 was greater than 8 µM; in the assay on ECC4 it was greater than 8 µM; in the assay with P31-FUJ it was greater than 8 µM; in the assay with D-336MG, 0.769 µM; in the assay with KARPAS-422, greater than 8 µM; in the assay on ARH-77, greater than 8 µM.
